Data from patent publication US4740476A, “Immunoassay for estriol-3-sulfate” (Nihon Medi-Physics Co., Ltd., priority 1984, dated 1988).
Counter-ions that a name gives are not always drawn.

System: anti-estriol-3-sulfate antibody immobilized on Sepharose 4B
Experiment: Cross-reaction of various steroids in the radioimmunoassay (50% inhibition of labeled estriol-3-sulfate binding)
Design: species or system guinea pig
Conditions: mass ratio of non-labeled estriol-3-sulfate to each steroid required for 50% inhibition of labeled estriol-3-sulfate binding
Experimental: A plasma specimen (0.1 ml) diluted with tris-HCl buffer (0.1 mol/liter; pH, 8.3) (containing glutamine (0.1 mol/liter)) was added thereto, and the resulting solution was incubated at 4° C. for 16 hours. The mixture was centrifuged at 3500 rpm for 20 minutes. A 0.2 ml aliquot of each supernatant was taken into a counting vial and admixed with Bray's scintillator, and radioactivity was counted in an Aloka LSC-673 liquid scintillation spectrometer.
The cross-reactivity is determined by calculating the mass ratio of non-labeled estriol-3-sulfate to each steriod required to show 50% inhibition of the labeled estiol-3-sulfate binding to the antibody.

Structure (SMILES) | Cross-reaction (%)
C[C@]12CC[C@@H]3c4ccc(O)cc4CC[C@H]3[C@@H]1CCC2=O [Estrone] | < 0.001%
COc1ccc2c(c1)CC[C@@H]1[C@@H]2CC[C@]2(C)C(=O)CC[C@@H]12 [Estrone methyl ether] | < 0.001%
C[C@]12CC[C@@H]3c4ccc(O)cc4CC[C@H]3[C@@H]1CC[C@@H]2O [Estradiol] | < 0.001%
C[C@]12CC[C@@H]3c4ccc(O[C@@H]5O[C@H](C(=O)O)[C@@H](O)[C@H](O)[C@H]5O)cc4CC[C@H]3[C@@H]1CCC2=O [Estrone glucuronide] | < 0.001%
C[C@]12CC[C@H]3[C@@H](CCC4=CC(=O)CC[C@@]43C)[C@@H]1CC[C@@H]2OS(=O)(=O)O [Testosterone sulfate] | 0.004%
C[C@]12CC[C@@H]3c4ccc(O)cc4CC[C@H]3[C@@H]1C[C@@H](O[C@@H]1O[C@H](C(=O)O)[C@@H](O)[C@H](O)[C@H]1O)[C@@H]2O [Estriol-16-glucuronide] | < 0.001%
C[C@]12CC[C@H]3[C@@H](CCC4=CC(=O)CC[C@@]43C)[C@@H]1CC[C@@H]2O [Testosterone] | < 0.001%
C[C@]12CC[C@@H]3c4ccc(OS(=O)(=O)O)cc4CC[C@H]3[C@@H]1CCC2=O [Estrone sulfate] | 0.060%
C[C@]12CC[C@@H]3c4ccc(O)cc4CC[C@H]3[C@@H]1C[C@H](O)[C@@H]2O [16-Epiestriol] | < 0.001%
C[C@]12CC[C@@H]3c4ccc(O)cc4CC[C@H]3[C@@H]1C[C@@H](O)[C@@H]2O [Estriol] | 0.033%
C[C@]12CC[C@@H](O)C[C@@H]1CC[C@@H]1[C@@H]2CC[C@]2(C)C(=O)CC[C@@H]12 [Androsterone] | < 0.001%
CC(C)CCC[C@@H](C)[C@H]1CC[C@H]2[C@@H]3CC=C4C[C@@H](OS(=O)(=O)O)CC[C@]4(C)[C@H]3CC[C@]12C [Cholesterol sulfate] | 0.081%
CC(=O)[C@H]1CC[C@H]2[C@@H]3CCC4=CC(=O)CC[C@]4(C)[C@H]3CC[C@]12C [Progesterone] | < 0.001%
C[C@]12CC[C@@H]3c4ccc(OS(=O)(=O)O)cc4CC[C@H]3[C@@H]1C[C@@H](O)[C@@H]2O [Estriol-3-sulfate] | 100%
C[C@]12CCC(=O)C=C1CC[C@@H]1[C@@H]2CC[C@]2(C)C(=O)CC[C@@H]12 [4-Androsterone-3,17-dione] | < 0.001%
C[C@]12C[C@H](O)[C@H]3[C@@H](CCC4=CC(=O)CC[C@@]43C)[C@@H]1CC[C@@H]2C(=O)CO [Corticosterone] | < 0.001%
CC(C)CCC[C@@H](C)[C@H]1CC[C@H]2[C@@H]3CC=C4C[C@@H](O)CC[C@]4(C)[C@H]3CC[C@]12C [Cholesterol] | < 0.001%
C[C@]12CC[C@@H]3c4ccc(OS(=O)(=O)O)cc4CC[C@H]3[C@@H]1CC[C@@H]2O [Estradiol-3-sulfate] | 0.144%
C[C@]12CC[C@H](OS(=O)(=O)O)CC1=CC[C@@H]1[C@@H]2CC[C@]2(C)C(=O)CC[C@@H]12 [Dehydroepiandrosterone sulfate] | 0.077%
C[C@]12CC[C@@H]3c4ccc(O)cc4CC[C@H]3[C@@H]1CC[C@@H]2O[C@@H]1O[C@H](C(=O)O)[C@@H](O)[C@H](O)[C@H]1O [Estradiol-17-glucuronide] | < 0.001%
C[C@]12CC[C@@H]3c4ccc(O)c(O)c4CC[C@H]3[C@@H]1CCC2=O [4-Hydroxyestrone] | < 0.001%
C[C@]12CC[C@@H]3c4ccc(O)cc4CC[C@H]3[C@@H]1C[C@@H](O)[C@@H]2O[C@@H]1O[C@H](C(=O)O)[C@@H](O)[C@H](O)[C@H]1O [Estriol-17-glucuronide] | < 0.001%
C[C@]12CC[C@@H]3c4cc(O)c(O)cc4CC[C@H]3[C@@H]1CCC2=O [2-Hydroxyestrone] | < 0.001%
C[C@]12CC[C@H](O)CC1=CC[C@@H]1[C@@H]2CC[C@]2(C)C(=O)CC[C@@H]12 [Dehydroepiandrosterone] | < 0.001%
C[C@]12CC[C@@H]3c4ccc(O[C@@H]5O[C@H](C(=O)O)[C@@H](O)[C@H](O)[C@H]5O)cc4CC[C@H]3[C@@H]1C[C@@H](O)[C@@H]2O [Estriol-3-glucuronide] | 0.050%

Same assay, conditions: mass ratio of non-labeled estriol-3-sulfate to each steroid required for 50% inhibition of labeled estriol-3-sulfate binding; listed as dehydroepiandrosterone sulfate

Structure (SMILES) | Cross-reaction (%)
C[C@]12CC[C@H](OS(=O)(=O)O)CC1=CC[C@@H]1[C@@H]2CC[C@]2(C)C(=O)CC[C@@H]12 [Dehydroepiandrosterone sulfate] | 0.77%

Biological target: anti-estriol-3-sulfate antibody immobilized on Sepharose 4B
Experiment: Scatchard plot of [3H]-estriol-3-sulfate binding to immobilized antibody
Design: species or system guinea pig
Conditions: immobilized antibody 1:500, incubation at 4° C. for 16 hours
Experimental: A plasma specimen (0.1 ml) diluted with tris-HCl buffer (0.1 mol/liter; pH, 8.3) (containing glutamine (0.1 mol/liter)) was added thereto, and the resulting solution was incubated at 4° C. for 16 hours. The mixture was centrifuged at 3500 rpm for 20 minutes. A 0.2 ml aliquot of each supernatant was taken into a counting vial and admixed with Bray's scintillator, and radioactivity was counted in an Aloka LSC-673 liquid scintillation spectrometer. […] FIG. 1 of the accompanying drawing showing the Scatchard plot graph of anti-estriol-3-sulfate antibody immobilized on Sepharose 4B).

Structure (SMILES) | association constant (Ka)
C[C@]12CC[C@@H]3c4ccc(OS(=O)(=O)O)cc4CC[C@H]3[C@@H]1C[C@@H](O)[C@@H]2O [Estriol-3-sulfate] | 4.3e+09 L/mol
